Experimental data: publication PMC10069031 (European Journal of Medical Research, 2023)

Assays:
Format in all cases: in vivo, mouse
[1] = test system: CT26 tumors; experiment: Growth of subcutaneous CT26 tumors in BALB/c mice; settings: CRC tumors in mice
Procedure: CT26 tumor cells were cultivated in RPMI 1640 with 2 mM L-glutamine (Gibco, Invitrogen GmbH) containing 10% fetal bovine serum (Gibco) at 37 °C and 5% CO2. Cell lines were maintained in culture for no longer than 6 months, and mycoplasma contamination was excluded by enzymatic test (MycoAlert, Lonza) prior to in vivo application. Tumor cells (2 × 10^6) were transplanted subcutaneously into 6- to 8-week-old female BALB/c mice. Control mice were subjected to sham surgery without tumor cell transplantation. Blood and tumor samples were collected from untreated control and tumor-bearing mice on days 4 and 8 (n = 3 mice/group). […] Tumor diameter was measured by caliper and body weight was determined at least twice weekly. Tumor volume was calculated using the formula 0.5 × a × b^2, where a and b are the long and short diameters of the tumor, respectively.
(§1) For tissue collection, mice were killed at predetermined time points. […] Tumors were removed, and their weights determined, then divided into three pieces, one of which was snap-frozen, one formalin fixed and paraffin embedded, and one weighed and used for FC analyses. […]
An overall comparison between treatment groups of the endpoints measured on CT26 and MC38 mice after they had been killed was performed using different statistical models. […]

[2] = PK of REG in plasma and CT26 tumor tissue; settings: after the last dose, CT26 mice
Procedure: CT26 tumor cells were cultivated in RPMI 1640 with 2 mM L-glutamine (Gibco, Invitrogen GmbH) containing 10% fetal bovine serum (Gibco) at 37 °C and 5% CO2. Cell lines were maintained in culture for no longer than 6 months, and mycoplasma contamination was excluded by enzymatic test (MycoAlert, Lonza) prior to in vivo application. Tumor cells (2 × 10^6) were transplanted subcutaneously into 6- to 8-week-old female BALB/c mice. Control mice were subjected to sham surgery without tumor cell transplantation. Blood and tumor samples were collected from untreated control and tumor-bearing mice on days 4 and 8 (n = 3 mice/group). […] For interim analysis, blood and tumor tissue were collected from each group (n = 3 mice/group) after 7 days of treatment. For pharmacokinetic (PK)/pharmacodynamic (PD) relationship analysis, tissues were taken 24 h after the penultimate dose and 1, 3, 7, and 24 h after the ultimate dose. Tumor diameter was measured by caliper and body weight was determined at least twice weekly. Tumor volume was calculated using the formula 0.5 × a × b^2, where a and b are the long and short diameters of the tumor, respectively.
PK parameters, namely AUC(0–24)ss and Cmax, were calculated from plasma and tumor concentrations using a noncompartmental analysis.

[3] = test system: CCL2; experiment: CCL2 ELISA in CT26 tumor tissue; settings: CT26 tumors
Procedure: CT26 tumor cells were cultivated in RPMI 1640 with 2 mM L-glutamine (Gibco, Invitrogen GmbH) containing 10% fetal bovine serum (Gibco) at 37 °C and 5% CO2. Cell lines were maintained in culture for no longer than 6 months, and mycoplasma contamination was excluded by enzymatic test (MycoAlert, Lonza) prior to in vivo application. Tumor cells (2 × 10^6) were transplanted subcutaneously into 6- to 8-week-old female BALB/c mice. Control mice were subjected to sham surgery without tumor cell transplantation. Blood and tumor samples were collected from untreated control and tumor-bearing mice on days 4 and 8 (n = 3 mice/group). […] For interim analysis, blood and tumor tissue were collected from each group (n = 3 mice/group) after 7 days of treatment. […] Tumor diameter was measured by caliper and body weight was determined at least twice weekly. Tumor volume was calculated using the formula 0.5 × a × b^2, where a and b are the long and short diameters of the tumor, respectively.
as §1

[4] = test system: CCL2; experiment: CCL2 in blood, MC38 study; settings: C57BL/6 mice with subcutaneous MC38 CRC tumors
Procedure: CCL2 was detected in plasma samples and tumor tissue using the U-Plex mouse MCP-1 ELISA Kit (Meso Scale Diagnostics) according to the manufacturer’s instructions. Measurements were performed at least in duplicate. For plasma, 12.5 µL was analyzed per animal.
Five analysis of variance (ANOVA) models were applied to analyze the log10-transformed values of the tumor weight in the CT26 study, the CCL2 levels in the tumor in the CT26 and MC38 studies, and the CCL2 levels in the PB in the CT26 and MC38 studies. The standard assumption of equal variances between treatment groups was applied for all endpoints, except for CCL2 levels in the tumor in the MC38 study, for which unequal variances between treatment groups were allowed. A negative binomial regression model was applied to evaluate percentages of CD115^hi and F4/80^hi cells within the CD45^+ cell population in PB and tumor tissue, respectively.
In vivo passaging was initiated by transplanting fragments of cryo-preserved MC38 tumors of early passages (<p5) subcutaneously into 6–8-week-old female C57BL/6 mice. Tumors were grown to a size of about 1000 mm^3, excised, cut into fragments edging approximately 2 mm, and used for further passaging in vivo for a maximum of 10 passages. Necrotic areas were removed. […]

- time of highest concentration of REG (Cmax) in plasma [2]: ≤ 3 h
Compound: CNC(=O)c1cc(Oc2ccc(NC(=O)Nc3ccc(Cl)c(C(F)(F)F)c3)c(F)c2)ccn1 [REG, Regorafenib]
- partial or complete remission [1]: did not induce partial or complete remission
- tumor growth vs vehicle [1]: significantly inhibited
- CCL2 concentrations in tumor lysates vs vehicle controls [3]: a trend toward higher levels
- CCL2 levels in blood [4]: without affecting
